Experimental data published in PubChem BioAssay AID330 (DTP/NCI, 2004).
Several values for one entry are separate records, joined by “and”; a condition that tells them apart may be missing. Equal values may be shown once. Inconclusive results and toxic doses are left out.

System: P388 leukemia ip, CD2F1 mice, survival T/C
Assay: NCI In Vivo Anticancer Drug Screen. Data for tumor model P388 Leukemia (intraperitoneal) in CD2F1 (CDF1) mice
Settings: endpoint: median survival time, higher = longer survival
How it was run: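 Mice carrying the transplanted tumor received test compound or vehicle. Survival was recorded in each group, and the value is the treated-group measurement divided by that of the vehicle-treated control group.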

[1] = dose: 12.5 mg/kg/injection, schedule: Q01DX009 (ip), vehicle: saline
[2] = dose: 25.0 mg/kg/injection, schedule: Q01DX009 (ip), vehicle: saline
[3] = dose: 12.5 mg/kg/injection, schedule: Q01DX009 (ip), vehicle: saline with Tween-80
[4] = dose: 25.0 mg/kg/injection, schedule: Q01DX009 (ip), vehicle: saline with Tween-80
[5] = dose: 50.0 mg/kg/injection, schedule: Q01DX009 (ip), vehicle: saline with Tween-80
[6] = dose: 60.0 mg/kg/injection, schedule: Q01DX005 (ip), vehicle: saline with Tween-80
[7] = dose: 120.0 mg/kg/injection, schedule: Q01DX005 (ip), vehicle: saline with Tween-80
[8] = dose: 240.0 mg/kg/injection, schedule: Q01DX005 (ip), vehicle: saline with Tween-80
[9] = dose: 12.5 mg/kg/injection, schedule: Q01DX009 (ip), vehicle: distilled water + Tween-80
[10] = dose: 25.0 mg/kg/injection, schedule: Q01DX009 (ip), vehicle: distilled water + Tween-80
[11] = dose: 50.0 mg/kg/injection, schedule: Q01DX009 (ip), vehicle: distilled water + Tween-80
[12] = dose: 100.0 mg/kg/injection, schedule: Q01DX009 (ip), vehicle: distilled water + Tween-80
[13] = dose: 50.0 mg/kg/injection, schedule: Q01DX005 (ip), vehicle: Klucel (hydroxypropylcellulose) (HPC)
[14] = dose: 100.0 mg/kg/injection, schedule: Q01DX005 (ip), vehicle: Klucel (hydroxypropylcellulose) (HPC)
[15] = dose: 200.0 mg/kg/injection, schedule: Q01DX005 (ip), vehicle: Klucel (hydroxypropylcellulose) (HPC)
[16] = dose: 6.25 mg/kg/injection, schedule: Q01DX005 (ip), vehicle: saline with Tween-80
[17] = dose: 12.5 mg/kg/injection, schedule: Q01DX005 (ip), vehicle: saline with Tween-80
[18] = dose: 25.0 mg/kg/injection, schedule: Q01DX005 (ip), vehicle: saline with Tween-80
[19] = dose: 50.0 mg/kg/injection, schedule: Q01DX005 (ip), vehicle: saline with Tween-80
[20] = dose: 100.0 mg/kg/injection, schedule: Q01DX005 (ip), vehicle: saline with Tween-80
[21] = dose: 200.0 mg/kg/injection, schedule: Q01DX009 (ip), vehicle: distilled water + Tween-80

CC(C)CCCC(C)C1CCC2C3CC=C4CC(O)CCC4(C)C3CCC12C (configuration not stated) (tested in a mixture with another compound)
T/C (dose: 3.12 mg/kg/injection, schedule: Q01DX009 (ip), vehicle: saline): 87 % of control
T/C (dose: 6.25 mg/kg/injection, schedule: Q01DX009 (ip), vehicle: saline): 92 % of control
T/C [1]: 94 % of control
T/C [2]: 94 % of control

Cc1ccccc1NCC#N
T/C [3]: 100 % of control
T/C [4]: 100 % of control
T/C [5]: 104 % of control

CCOC(=O)CCC1(C)Sc2ccccc2N1C (configuration not stated)
T/C [6]: 107 % of control
T/C [7]: 110 % of control
T/C [8]: 107 % of control

CC[As](CC)SC1CCC2(C)C(=CCC3C4CCC(=O)C4(C)CCC32)C1 (configuration not stated)
T/C [9]: 105 % of control
T/C [10]: 100 % of control and 117 % of control
T/C [11]: 120 % of control
T/C [12]: 156 % of control

Cc1ccc2c(c1)C(=O)c1cc3c(cc1C2=O)OCO3
T/C [6]: 87 % of control
T/C [7]: 91 % of control
T/C [8]: 89 % of control and 91 % of control

CCOc1cnco1
T/C (dose: 100.0 mg/kg/injection, schedule: Q04DX002 (ip), vehicle: saline): 99 % of control
T/C (dose: 200.0 mg/kg/injection, schedule: Q04DX002 (ip), vehicle: saline): 100 % of control
T/C (dose: 400.0 mg/kg/injection, schedule: Q04DX002 (ip), vehicle: saline): 112 % of control

Cc1ccc(NP2(Nc3ccc(C)cc3)=NP(Nc3ccc(C)cc3)(Nc3ccc(C)cc3)=NP(Nc3ccc(C)cc3)(Nc3ccc(C)cc3)=NP(Nc3ccc(C)cc3)(Nc3ccc(C)cc3)=N2)cc1
T/C [13]: 101 % of control
T/C [14]: 99 % of control
T/C [15]: 101 % of control

CC1CN=C(c2ccc(NC(=O)NCCCCCCCCCCCCNC(=O)Nc3ccc(C4=NCC(C)N4)cc3)cc2)N1 (configuration not stated)
T/C [16]: 103 % of control
T/C [17]: 103 % of control
T/C [18]: 108 % of control
T/C [19]: 106 % of control
T/C [20]: 116 % of control

COc1cc(NCCCCCN=C(N)NC#N)c2ncccc2c1
T/C [13]: 99 % of control
T/C [14]: 98 % of control
T/C [15]: 92 % of control

CCOC(=O)C(=O)C1Cc2ccc3ccc(OC)cc3c2C1=O (configuration not stated)
T/C [9]: 109 % of control
T/C [10]: 112 % of control
T/C [11]: 102 % of control
T/C [12]: 94 % of control
T/C [21]: 102 % of control

CCO/C=C1/N=C(c2ccc3ccccc3c2)OC1=O
T/C (dose: 60.0 mg/kg/injection, schedule: Q01DX005 (ip), vehicle: saline + Tween-80 + alcohol): 101 % of control
T/C (dose: 120.0 mg/kg/injection, schedule: Q01DX005 (ip), vehicle: saline + Tween-80 + alcohol): 100 % of control
T/C (dose: 240.0 mg/kg/injection, schedule: Q01DX005 (ip), vehicle: saline + Tween-80 + alcohol): 86 % of control

Cc1cc2nc(CC(=O)c3cccnc3)c(CC(=O)c3cccnc3)nc2cc1C
T/C [16]: 90 % of control
T/C [17]: 90 % of control
T/C [18]: 90 % of control
T/C [20]: 91 % of control

O=C(Nc1ccc(C2=NCCN2)cc1)c1ccc(C(=O)Nc2ccc(C3=NCCN3)cc2)c(NC(=O)c2ccc(C(=O)Nc3cc(C(=O)Nc4ccc(C5=NCCN5)cc4)ccc3C(=O)Nc3ccc(C4=NCCN4)cc3)cc2)c1
T/C (dose: 25.0 mg/kg/injection, schedule: Q01DX010 (ip), vehicle: saline): 90 % of control
T/C (dose: 50.0 mg/kg/injection, schedule: Q01DX010 (ip), vehicle: saline): 86 % of control
T/C (dose: 100.0 mg/kg/injection, schedule: Q01DX010 (ip), vehicle: saline): 100 % of control
T/C (dose: 200.0 mg/kg/injection, schedule: Q01DX010 (ip), vehicle: saline): 100 % of control

Cn1c(Cl)cc2nc3ccccc3n2c1=O
T/C [6]: 96 % of control
T/C [7]: 94 % of control
T/C [8]: 100 % of control

COc1cccc2c1C(=O)c1c(O)c3c(c(O)c1C2=O)CC(O)(C(C)=O)CC3OC1CC(NC(=O)C(F)(F)F)C(OC(=O)c2ccc([N+](=O)[O-])cc2)C(C)O1 (configuration not stated)
T/C (dose: 3.13 mg/kg/injection, schedule: Q04DX003 (ip), vehicle: distilled water + Tween-80): 102 % of control and 98 % of control
T/C (dose: 6.25 mg/kg/injection, schedule: Q04DX003 (ip), vehicle: distilled water + Tween-80): 101 % of control and 100 % of control
T/C (dose: 12.5 mg/kg/injection, schedule: Q04DX003 (ip), vehicle: distilled water + Tween-80): 99 % of control and 97 % of control
T/C (dose: 25.0 mg/kg/injection, schedule: Q04DX003 (ip), vehicle: distilled water + Tween-80): 111 % of control and 108 % of control
T/C (dose: 50.0 mg/kg/injection, schedule: Q04DX003 (ip), vehicle: distilled water + Tween-80): 95 % of control and 100 % of control

COc1ccccc1C1NC(c2ccccc2OC)C2CCCC1C2=O (configuration not stated)
T/C (dose: 100.0 mg/kg/injection, schedule: Q04DX003 (ip), vehicle: saline): 88 % of control
T/C (dose: 200.0 mg/kg/injection, schedule: Q04DX003 (ip), vehicle: saline): 88 % of control
T/C (dose: 400.0 mg/kg/injection, schedule: Q04DX003 (ip), vehicle: saline): 90 % of control

CCCCCCCCCCCCCCCC[N+]1([O-])CCOCC1
T/C [3]: 105 % of control
T/C [4]: 102 % of control
T/C [5]: 102 % of control

O=C(/C=C/c1ccc(Cl)cc1)c1ccccc1
T/C [5]: 105 % of control
T/C (dose: 100.0 mg/kg/injection, schedule: Q01DX009 (ip), vehicle: saline with Tween-80): 103 % of control
T/C (dose: 200.0 mg/kg/injection, schedule: Q01DX009 (ip), vehicle: saline with Tween-80): 92 % of control

Cc1ccc(S(=O)(=O)CC(=O)c2ccccc2)cc1
T/C (dose: 100.0 mg/kg/injection, schedule: Q01DX009 (ip), vehicle: Klucel (hydroxypropylcellulose) (HPC)): 108 % of control
T/C (dose: 200.0 mg/kg/injection, schedule: Q01DX009 (ip), vehicle: Klucel (hydroxypropylcellulose) (HPC)): 108 % of control
T/C (dose: 400.0 mg/kg/injection, schedule: Q01DX009 (ip), vehicle: Klucel (hydroxypropylcellulose) (HPC)): 104 % of control

COc1ccc2c3c([nH]c2c1)C(C)=NCC3
T/C (dose: 50.0 mg/kg/injection, schedule: Q01DX005 (ip), vehicle: saline): 100 % of control
T/C (dose: 100.0 mg/kg/injection, schedule: Q01DX005 (ip), vehicle: saline): 105 % of control

CCN1N=Nc2ccccc2NC1=O
T/C [19]: 101 % of control
T/C [20]: 91 % of control
T/C (dose: 200.0 mg/kg/injection, schedule: Q01DX005 (ip), vehicle: saline with Tween-80): 96 % of control

CN1c2ccccc2C(=O)Nc2cnc(Cl)nc21
T/C (dose: 25.0 mg/kg/injection, schedule: Q01DX005 (ip), vehicle: Klucel (hydroxypropylcellulose) (HPC)): 94 % of control
T/C [13]: 108 % of control

CCCCCC1NC(C(=O)O)CS1 (configuration not stated)
T/C (dose: 50.0 mg/kg/injection, schedule: Q01DX009 (ip), vehicle: suspension in saline): 88 % of control
T/C (dose: 100.0 mg/kg/injection, schedule: Q01DX009 (ip), vehicle: suspension in saline): 94 % of control
T/C (dose: 200.0 mg/kg/injection, schedule: Q01DX009 (ip), vehicle: suspension in saline): 102 % of control

COc1cc(C)c(OC)c(CC=C(C)CC(=O)C[C@@]2(C)CCC[C@@]2(C)C(=O)CCC(C)(C)O)c1 (mixture of isomers)
T/C [18]: 93 % of control
T/C [19]: 91 % of control
T/C [20]: 95 % of control

O=C(OCC1OC(C2N(c3ccccc3)CCN2c2ccccc2)C(OC(=O)c2ccccc2)C1OC(=O)c1ccccc1)c1ccccc1 (configuration not stated)
T/C [9]: 102 % of control
T/C [10]: 102 % of control
T/C [11]: 94 % of control
T/C [12]: 102 % of control
T/C [21]: 93 % of control

CCc1ccc2c(c1)C(O)(C#Cc1ccccc1)c1cc(CC)ccc1C2(O)C#Cc1ccccc1 (configuration not stated)
T/C (dose: 100.0 mg/kg/injection, schedule: Q04DX002 (ip), vehicle: saline with Tween-80): 93 % of control
T/C (dose: 200.0 mg/kg/injection, schedule: Q04DX002 (ip), vehicle: saline with Tween-80): 93 % of control
T/C (dose: 400.0 mg/kg/injection, schedule: Q04DX002 (ip), vehicle: saline with Tween-80): 93 % of control

N#CC(C#N)C1C=C/C(=N\O)C1 (configuration not stated)
T/C [1]: 99 % of control
T/C [2]: 101 % of control
T/C [5]: 109 % of control
T/C (dose: 50.0 mg/kg/injection, schedule: Q01DX009 (ip), vehicle: saline): 102 % of control
